The text below walks through data of patent publication US11926619B2, “Certain pladienolide compounds and methods of use” (EISAI R&D MANAGEMENT CO., LTD., priority 2018, dated 2024).

Type in all cases: cell-based
Test [1] relates to WiDr-R cells (colon cancer cells; chemically-induced SF3B1 R1074H mutant). Description: Cell viability assay (CellTiter-Glo, 72 hr), resistant WiDr-R cells (counter-screen). Conditions: WiDr-R cells (SF3B1 R1074H mutation, resistant); read-out: WiDr-R GI50. As to the method: (§1) Cells (WiDr and Panc05.04 obtained from ATCC) were seeded in 96-well plates, with 2000 cells/100 μL/well, and incubated overnight. Spent media was removed, and fresh media containing 9 different concentrations of compound (100 μL/well) were added, with DMSO concentration from compound stock solution adjusted to be 0.1%. Each compound treatment was done in duplicate or triplicate at each concentration.
(§2) Another plate with cells seeded was dedicated as a time zero (Tz) plate, to which was added 0.1% DMSO in media (100 μL/well) followed by CellTiter-Glo® reagent (Promega Corporation, Madison, Wisconsin) (50 μL/well) for ATP measurement as a surrogate of cell viability. Average value from measurement of multiple wells of this plate is used as Tz. Compound-treated plates were incubated for 72 hr at 37° C. Then, CellTiter-Glo® reagent (50 μL/well) was added and ATP was measured. Average value from measurement of the duplicate or triplicate compound-treated wells is used as Ti, and seeded plates with medium having 0.1% DMSO without compound is used as control growth (C).
(§3) Percentage growth inhibition/Percentage viability was calculated as:
(§4) [(Ti−Tz)/(C−Tz)]×100 for concentrations for which Ti>/=Tz
(§5) [(Ti−Tz)/Tz]×100 for concentrations for which Ti<Tz.
(§6) *time zero (Tz), control growth (C), and test growth in the presence of compound (Ti) Percentage growth inhibition/Percentage viability are plotted versus compound concentration to determine Emax.
(§7) Emax refers to the maximum achievable response to a compound in a tested dose range, with a negative value indicating cellular lethality. A larger negative Emax value indicates greater cellular lethality for a particular compound.
The counter-screening of compounds in this viability assay with a “resistant” WiDr-R cell line may indicate whether these compounds have off-target effect(s).

In test [2] the test system is WiDr cells (colon cancer cells; wildtype SF3B1). The test can be described thus: Cell viability assay (CellTiter-Glo, 72 hr), WiDr cells. Conditions: Homo sapiens. The procedure:
as §1, §2, §3, §4, §5, §6
Emax refers to the maximum achievable response to a compound in a tested dose range, with a negative value indicating cellular lethality. A larger negative Emax value indicates greater cellular lethality for a particular compound. […]

Test [3] relates to Panc 05.04 cells (pancreatic cancer cells; Q699H and K700E mutations in SF3B1). Description: Cell viability assay (CellTiter-Glo, 72 hr), Panc 05.04 cells. Conditions: for Emax: maximum achievable response in tested dose range, negative value = cellular lethality, read-out: Panc 05.04 (mt SF3B1 cells) Emax (%). The procedure: as §1, §2, §3, §4, §5, §6, §7
In general terms: Cellular ATP, detected with luciferase, serves as a proxy for viable cell number.

Setting [4] is: WiDr cells (wildtype SF3B1), read-out: WiDr GI50.
Setting [5] is: Panc 05.04 cells (mutant SF3B1).
[6] abbreviates: Panc 05.04 cells (mutant SF3B1), read-out: Panc 05.04 (mt SF3B1 cells), GI50.
[7] abbreviates: WiDr cells, 72 hr, CellTiter-Glo, read-out: WiDr GI50.
[8] abbreviates: Panc 05.04, Panc05.04 cells, 72 hr, CellTiter-Glo, read-out: Panc05.04 GI50.

The structures appear in SMILES notation. Like-named read-outs stand apart in the source and are kept apart here. A value given as a limit tells only on which side of the number the result lay.

With `C/C(=C\C=C\[C@@H](C)COC(=O)N1Cc2ccccc2C1)[C@H]1OC(=O)C[C@H](O)CC[C@@](C)(O)[C@@H](OC(=O)N2CCN(C)CC2)/C=C/[C@@H]1C`, the GI50 in test [1] was more than 1000 nM; in test [2] (setting [4]), 33.8 nM; in test [3] (setting [6]) it was 35.4 nM. Besides, the Emax in test [3] (setting [5]) is -56%.

Regarding `CCC(C)N(C)C(=O)OC[C@H](C)/C=C/C=C(\C)[C@H]1OC(=O)C[C@H](O)CC[C@@](C)(O)[C@@H](OC(C)=O)/C=C/[C@@H]1C` (some centres unmarked), the GI50 in test [1] is more than 10000 nM; in test [2] (setting [4]) it was 308 nM; in test [3] (setting [6]), 587 nM.

Take `C/C(=C\C=C\[C@@H](C)COC(=O)N1CCCC1)[C@H]1OC(=O)C[C@H](OC(=O)N2CCCC2)CC[C@@](C)(O)[C@@H](OC(=O)N2CCN(C3CCCCCC3)CC2)/C=C/[C@@H]1C`: the figures for the concentration for 50% growth inhibition (GI50) in test [1], in test [2] (setting [4]) and in test [3] (setting [6]) were more than 1000 nM, 77.3 nM and 80.1 nM, respectively.

Regarding `CCC(=O)[C@@H](C)[C@H]1O[C@@H]1C[C@@](C)(O)/C=C/C=C(\C)[C@H]1OC(=O)CC(=O)CC[C@@](C)(O)[C@@H](OC(C)=O)/C=C/[C@@H]1C`, in test [3] (setting [5]), the Emax was -81.7%. For the same molecule, the GI50 in test [3] (setting [6]) came out at 97.7 nM.

As for `CC(=O)O[C@H]1/C=C/[C@H](C)[C@@H](/C(C)=C/C=C/C(C)c2cccc([C@H](C)CO)n2)OC(=O)C[C@H](O)CC[C@@]1(C)O` (some centres unmarked), the GI50 in test [1] was more than 10000 nM; in test [2] (setting [4]) it was 343 nM; in test [3] (setting [6]), 408 nM. Besides, the Emax in test [3] (setting [5]) is -28.2%.

As for `COCc1ccccc1CCC(C)/C=C/C=C(\C)[C@H]1OC(=O)C[C@H](O)CC[C@@](C)(O)[C@@H](OC(C)=O)/C=C/[C@@H]1C` (some centres unmarked), in test [3] (setting [5]), the Emax was -39.5%. Further, the 50% growth inhibitory concentration (GI50) in test [3] (setting [6]) was found to be 427 nM.

Consider `C/C(=C\C=C\[C@@H](C)COC(=O)N1CC[C@H](F)C1)[C@H]1OC(=O)C[C@H](O)CC[C@@](C)(O)[C@@H](OC(=O)N2CCN(C)CC2)/C=C/[C@@H]1C`, for which the GI50 in test [1] is more than 1000 nM; in test [2] (setting [4]), 2.84 nM; in test [3] (setting [6]) it was 4.86 nM. Also, the Emax in test [3] (setting [5]) is -90.2%.

Consider `CC(=O)O[C@H]1/C=C/[C@H](C)[C@@H](/C(C)=C/C=C/C(C)(O)c2ccccc2)OC(=O)C[C@H](O)CC[C@@]1(C)O` (some centres unmarked), for which the GI50 in test [1] is more than 10000 nM; in test [2] (setting [4]) it was 657 nM; in test [3] (setting [6]), 1500 nM. Further, the Emax in test [3] (setting [5]) came out at 13.3%.

As to `CC(=O)O[C@H]1/C=C/[C@H](C)[C@@H](/C(C)=C/C=C/[C@@H](C)c2ccccn2)OC(=O)CCCCC1`, the concentration for 50% growth inhibition (GI50) in test [1], in test [2] (setting [4]) and in test [3] (setting [6]) was more than 10000 nM in each case.

With `CC(=O)O[C@H]1/C=C/[C@H](C)[C@@H](/C(C)=C/C=C/C(C)(O)c2cccs2)OC(=O)C[C@H](O)CC[C@@]1(C)O` (some centres unmarked), the 50% growth inhibitory concentration (GI50) in test [1] is more than 10000 nM; in test [2] (setting [4]), 473 nM; in test [3] (setting [6]), 3790 nM. The Emax in test [3] (setting [5]) turned out to be 32.8%.

On to `C/C(=C\C=C\[C@@H](C)c1ccccn1)[C@H]1OC(=O)C[C@H](O)CC[C@@](C)(O)[C@@H](OC(=O)N(C)C2CCN(C)CC2)/C=C/[C@@H]1C`, for which the values for the 50% growth inhibitory concentration (GI50) in test [1], in test [2] (setting [4]) and in test [3] (setting [6]) were more than 1000 nM, 16.2 nM and 25.1 nM, respectively. In addition, the Emax in test [3] (setting [5]) is -60.2%.

Consider `C/C(=C\C=C\[C@@H](C)COC(=O)N1CCC[C@H]1C)[C@H]1OC(=O)CCCCC[C@@H](OC(=O)N2CCN(C)CC2)/C=C/[C@@H]1C`, for which the GI50 in test [1] was 681 nM; in test [2] (setting [4]) it was 3.44 nM; in test [3] (setting [6]), 7.73 nM. Further, the Emax in test [3] (setting [5]) is -65.3%.

Take `CC(=O)O[C@H]1/C=C/[C@H](C)[C@@H](/C(C)=C/C=C/[C@@H](C)COC(=O)N2CCOCC2)OC(=O)C[C@H](O)CC[C@@]1(C)O`: the 50% growth inhibitory concentration (GI50) is more than 10000 nM in test [1], 91.3 nM in test [2] (setting [4]) and 15.4 nM in test [3] (setting [6]).

On to `COC(=O)OC[C@H](C)/C=C/C=C(\C)[C@H]1OC(=O)C[C@H](O)CC[C@@](C)(O)[C@@H](OC(=O)N2CCN(C)CC2)/C=C/[C@@H]1C`, for which the results for the GI50 in test [1], in test [2] (setting [4]) and in test [3] (setting [6]) were more than 1000 nM, 14.7 nM and 5.11 nM, respectively. Further, the Emax in test [3] (setting [5]) is -95.9%.

As for `C/C(=C\C=C\[C@@H](C)c1cccnc1)[C@H]1OC(=O)C[C@H](O)CC[C@@](C)(O)[C@@H](OC(=O)N2CCN(C3CCCCCC3)CC2)/C=C/[C@@H]1C` (single isomer, unassigned) [Compound 159], the figures for the GI50 in test [2] (setting [7]) and in test [3] (setting [8]) were 13.3 nM and 15 nM, respectively.

Take `C/C(=C\C=C\[C@@H](C)c1ccccn1)[C@H]1OC(=O)CCCCC[C@@H](OC(=O)N2CCN(C3CCCCCC3)CC2)/C=C/[C@@H]1C`: the GI50 in test [1] was 3820 nM; in test [2] (setting [4]), 258 nM; in test [3] (setting [6]) it was 883 nM. Moreover, the Emax in test [3] (setting [5]) was -40.6%.

For the molecule `CCOc1cccc(CCC(C)/C=C/C=C(\C)[C@H]2OC(=O)C[C@H](O)CC[C@@](C)(O)[C@@H](OC(C)=O)/C=C/[C@@H]2C)c1` (some centres unmarked), the Emax in test [3] (setting [5]) is -32%. The 50% growth inhibitory concentration (GI50) in test [3] (setting [6]) worked out at 508 nM.

Regarding `C/C(=C\C=C\[C@@H](C)CCC(=O)N1CCCC1)[C@H]1OC(=O)CC(O)CCC(C)(O)[C@@H](OC(=O)N2CCN(C)CC2)/C=C/[C@@H]1C` (stereo in doubt) [Compound 1, [(2S,3S,4E,6S,7S,10S)-7,10-dihydroxy-3,7-dimethyl-2-[(2E,4E,6S)-6-methyl-9-oxo-9-pyrrolidin-1-ylnona-2,4-dien-2-yl]-12-oxo-1-oxacyclododec-4-en-6-yl] 4-methylpiperazine-1-carboxylate], in test [3] (Panc 05.04 cells, mutant SF3B1 cell line), the “cellular lethality (Emax comparison)” value was “greater cellular lethality than Compound 7”.

As for `CC(=O)O[C@H]1/C=C/[C@H](C)[C@@H](/C(C)=C/C=C/C(C)CCc2ccccc2)OC(=O)C[C@H](O)CC[C@@]1(C)O` (some centres unmarked), the Emax in test [3] (setting [5]) was -26.4%. Moreover, the GI50 in test [3] (setting [6]) turned out to be 827 nM.

As to `C/C(=C\C=C\[C@H](C)c1cccnc1)[C@H]1OC(=O)C[C@H](O)CC[C@@](C)(O)[C@@H](OC(=O)N2CCN(C3CCCCCC3)CC2)/C=C/[C@@H]1C` (single isomer, unassigned) [Compound 160], the GI50 in test [2] (setting [7]) was determined as 29.5 nM; in test [3] (setting [8]), 15.8 nM.

As to `C/C(=C\C=C\[C@@H](C)COC(=O)N1CC[C@@H](O)C1)[C@H]1OC(=O)CCCCC[C@@H](OC(=O)N(C)C)/C=C/[C@@H]1C`, the concentration for 50% growth inhibition (GI50) is 154 nM in test [2] (WiDr, read-out: WiDr GI50 (nM)) and 139 nM in test [3] (setting [6]). Also, the Emax in test [3] (setting [5]) is -83.7%.

As to `CC[Si](CC)(CC)O[C@@H]1CCN(c2nccc(C(C)/C=C/C=C(\C)[C@H]3OC(=O)CCCCC[C@@H](OC(=O)N4CCN(C5CCCCCC5)CC4)/C=C/[C@@H]3C)n2)C1` (some centres unmarked), the GI50 in test [1] is more than 10000 nM; in test [2] (setting [4]), more than 1000 nM.

Take `COCc1ccc(CCC(C)/C=C/C=C(\C)[C@H]2OC(=O)C[C@H](O)CC[C@@](C)(O)[C@@H](OC(C)=O)/C=C/[C@@H]2C)cc1` (some centres unmarked): the Emax in test [3] (setting [5]) is -67.3%. Moreover, in test [3] (setting [6]), the concentration for 50% growth inhibition (GI50) came out at 321 nM.

Consider `C/C(=C\C=C\C(C)c1cccnc1)[C@H]1OC(=O)C[C@H](O)CC[C@@](C)(O)[C@@H](OC(=O)N2CCC(N3CCC(F)CC3)CC2)/C=C/[C@@H]1C` (some centres unmarked), for which the Emax in test [3] (setting [5]) was 12.5%. In test [3] (setting [6]), the GI50 was determined as 862 nM.

On to `CC(=O)O[C@H]1/C=C/[C@H](C)[C@@H](/C(C)=C/C=C/C(C)(O)CCc2ccc(O)cc2)OC(=O)C[C@H](O)CC[C@@]1(C)O` (some centres unmarked), for which the Emax in test [3] (setting [5]) was -70.5%. Besides, in test [3] (setting [6]), the concentration for 50% growth inhibition (GI50) worked out at 249 nM.

With `CC[C@H](O)[C@@H](C)[C@H]1O[C@@H]1C[C@@](C)(O)/C=C/C=C(\C)[C@H]1OC(=O)C[C@H](O)CC[C@@](C)(OC)[C@@H](OC(=O)N(C)CCN(C)C)/C=C/[C@@H]1C`, in test [3] (setting [5]), the Emax was -64.4%. In addition, the GI50 in test [3] (setting [6]) was found to be 3.48 nM.

A word on the GI50: it is the concentration at which growth is held to half of that of the control.
